Source: patent publication US9017985B2, “Photosynthetic microorganisms enriched in selenium using selenohydroxy acid compounds, used thereof in nutrition, cosmetics and pharmacy” (Metabolium, priority 2008, dated 2015)

How the values were obtained:
[1] = diet supplementation; cited from earlier work
[2] = tested on: Arthrospira platensis 3054-E0001; experiment: Selenium enrichment of Arthrospira platensis microalga cultured with a selenium source, autotrophic conditions; analysis of selenium components; assay type: cell-based; conditions: 25 mgSe/l added once just after inoculation (T=0); 10 days incubation; mean of triplicate
Experimental: In these tests, the strain used is a strain of Arthrospira platensis 3054-E0001.
The 3054-50001 strain was cultured under autotrophic conditions in the following medium:
(§1) The pH was adjusted to 7.2 and the medium was autoclaved at 121° C. for 15 minutes.
The organic source of selenium, namely 2-hydroxy-4-methylselenobutanoic acid (THD-177, Tetrahedron SAS, France, CAS: 873660-49-2) was administered at a concentration of 25 mg/l on a selenium equivalent basis, i.e. 62.5 mg/l of 2-hydroxy-4-methylselenobutanoic acid.
The inorganic selenium source ([…], sodium selenite) was administered at a concentration of 25 mg/l on a selenium equivalent basis, i.e. 54.4 mg/l of sodium selenite.
The compound containing selenium was added just one time, just after the inoculation with the Arthrospira platensis strain (i.e. T=0).
(§2) After incubation for 10 days, the cell pellet was filtered through a 0.2 micron Nalgene membrane, and the cell retentate was rinsed with physiological saline. The wet cell mass was lyophilized for analysis of the constituents containing selenium (total selenium, selenomethionine and sodium selenite).
(§3) The total selenium was assayed by ICP coupled to detection by mass, after mineralization of the sample. The speciation of the selenium was carried out by high performance liquid chromatography coupled to tandem mass detection, after enzyme digestion of the sample, according to the method described by Lobinsky et al., in Mester, Z. et al. (2006) Annal. Bioanal. Chem. 385: 168-180.
Table 2 below indicates the average values, on a selenium equivalent basis, obtained in triplicate for incubation times of 10 days.
In these tests, the strain used is a strain of Arthrospira platensis 3054-E0001. […]

[3] = tested on: Chlorella vulgaris SAG211-11B; experiment: Selenium enrichment of Chlorella vulgaris microalga cultured with a selenium source, mixotrophic conditions; analysis of selenium components; assay type: cell-based; conditions: 20 mgSe/l added once in exponential growth phase; 7 days incubation; mean of triplicate
Experimental: In these tests, the strain used is a strain of Chlorella vulgaris SAG211-11B: an axenic strain originating from the SAG collection of the University of Göttingen (SAG: Sammlung von Algenkulturen der Universität Göttingen [Collection of Alga Cultures of the University of Göttingen]) which was cultured under mixotrophic conditions in the following medium:
as §1
The organic source of selenium, namely 2-hydroxy-4-methylselenobutanoic acid (THD-177, Tetrahedron SAS, France, CAS: 873660-49-2) was administered at a concentration of 20 mg/l on a selenium equivalent basis, i.e. 50 mg/l of 2-hydroxy-4-methylselenobutanoic acid.
The inorganic selenium source ([…], sodium selenite) was administered at a concentration of 20 mg/l on a selenium equivalent basis, i.e. 43.9 mg/l of sodium selenite.
The compound containing selenium was added just one time in the exponential growth phase of the Chlorella vulgaris strain (i.e. 3 days after the inoculation).
as §2, with “7” for “10”, “medium” for “cell pellet”, “membrane (Ref a-PES, diameter 90 mm),” for “membrane,”
as §3
Table 1 below indicates the average values, on a selenium equivalent basis, obtained in triplicate for incubation times of 7 days.

Compound | Toxicity compared with an intake in the form of sodium selenite [1] | Se(IV) [2] [mgSe/kg biomass] | SeMethionine [2] [mgSe/kg biomass] | Total Se [2] [mgSe/kg biomass] | Se(IV) [3] [mgSe/kg biomass] | SeMethionine [3] [mgSe/kg biomass] | Total Se [3] [mgSe/kg biomass]
C[Se]CC[C@H](N)C(=O)O [L(+)-selenomethionine] | much less toxic | – | – | – | – | – | –
O=[Se](O)O [NaSe, sodium selenite] | – | 5.1 ± 0.3 | 13 ± 3 | 177 ± 2 | 4.1 ± 0.4 | 29 ± 2 | 144 ± 5
